We go through 3 molecules from article PMC10102062, “Effects of DPTQ, a novel positive allosteric modulator of the dopamine D1 receptor, on spontaneous eye blink rate and spatial working memory in the nonhuman primate” (Psychopharmacology, 2023).

The test system of series [1] is rhesus monkeys. The arrangement: method as in Bruns et al., [2018]. As to conditions: smaller response than SKF82958; ref Bruns et al., [2018]; cited from earlier work.
The target in another series is D2 receptor (Homo sapiens, UniProt P14416). The arrangement: method as in previously published data. As to conditions: at 10 µM, functional and binding studies; ref previously published data; cited from earlier work.
Chain of D2 receptor (P14416 whole entry): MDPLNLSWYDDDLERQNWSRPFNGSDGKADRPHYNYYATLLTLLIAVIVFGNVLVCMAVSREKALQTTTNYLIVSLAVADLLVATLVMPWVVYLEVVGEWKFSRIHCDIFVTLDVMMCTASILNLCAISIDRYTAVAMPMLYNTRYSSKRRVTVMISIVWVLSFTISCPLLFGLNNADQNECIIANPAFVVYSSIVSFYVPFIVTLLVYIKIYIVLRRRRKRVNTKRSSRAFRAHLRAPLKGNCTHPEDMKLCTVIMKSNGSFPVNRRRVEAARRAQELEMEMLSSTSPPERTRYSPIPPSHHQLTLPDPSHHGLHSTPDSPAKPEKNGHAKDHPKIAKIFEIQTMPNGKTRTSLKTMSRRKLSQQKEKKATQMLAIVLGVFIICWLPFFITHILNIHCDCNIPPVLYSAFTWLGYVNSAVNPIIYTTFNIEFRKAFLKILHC
The test system of series [2] is pCREB and the AMPA receptor pGluR1. The arrangement: method as in Bruns et al. [2018]. The settings on record: hD1 mouse; similar to SKF82958; ref Bruns et al. [2018]; cited from earlier work.
Series [3] relates to rhesus monkeys. The series can be described thus: Spontaneous eye blink rate, cumulative dosing. In kind it is in vivo, rhesus monkey. The text has this:
Eleven 5–6-year-old, male rhesus monkeys (Chengdu Ping, An Animal Breeding and Research Base, Sichuan Province, China) with an average weight of 4.83 kg were included in the study. The animals were randomly divided into three groups, DPTQ higher cumulative dose group (n = 4); DPTQ lower cumulative dose group (n = 3); and vehicle (20% Captisol (CyDex Pharmaceuticals, Inc., KS) in NaPO4 buffer) group (n = 4). The D1 agonist SKF82958 was included as a positive control; the results for this compound (not shown here) were recently published together with data for a different D1PAM (DETQ, see Bruns et al. [2018]). The D1 selective antagonist SCH39166 hydrobromide (Cat No.: 2299, Batch No.: 3A/129719) was purchased from Tocris, MN, and was prepared in Millipore pure water with the injection volume 0.2 ml/kg. The D1 antagonist was dosed 15 min before vehicle or DPTQ (n = 4 animals per group).
Spontaneous eye blinking rate was measured during observational experiments conducted in a specially constructed monkey chair (Mason et al. [2019]). A U-shaped neck plate that helped to fixate the orientation of the head was used to facilitate observation of eye blink rate response. A compact video camera (Panasonic/wv-cp480/CH) on a tripod was positioned in front of the seated monkey. Two camera images were combined by video collector (Color QUAD system) and transferred to the EthoVision software (Noldus, Leesburg, VA) on the computer for on-line viewing and recording.
Two weeks before testing, monkeys were trained daily to sit in the monkey chair for two 2-h periods with food reward. During post-training test sessions conducted between 9:00 am and 4:30 pm every day, each monkey was studied for nine consecutive 15-min components. Each 15-min block consisted of a 10-min habituation period followed by a 5-min period during which eye blinking was counted. […] Observers blind to the treatment conditions later scored each 5-min videotaped session. An eye blink was defined as a visible, rapid opening and closing of the eyelid. Two observers independently confirmed the measurement with reliability > 90%.
The effects of different D1 ligands on spontaneous eye blink rate were studied by a cumulative dosing procedure (Jutikiewicz and Bergman 2004). Active compound or vehicle (Captisol 20% w/v NaPO4 buffer) was administered after obtaining two baseline eye blink recordings. The ligand was given in random order to different monkeys of each group as described above. To study dose response and time course, incremental doses of DPTQ were administrated at the end of 15-min components of each test session.
DPTQ (free base, see Hao et al. [2019]) was supplied by Eli Lilly Company. Captisol (Lot No.: NC-04A-05034) was prepared as follows: Captisol 20% w/v NaPO4 buffer 25 mM, pH 8. The injection volume for DPTQ was 0.5 ml/kg IM. DPTQ at 0.1 mg/kg, 0.5 mg/kg, and 1 mg/kg were dosed as clear solution, while the 5 mg/kg and 10 mg/kg doses were formulated as fine suspensions. The above vehicle solution was stored at 4℃ in a refrigerator and restored to room temperature before use. When preparing DPTQ fresh daily, a portion of the vehicle (20% Captisol) was added to the compound and stirred to wet, followed by addition of the remainder of the vehicle and mixing until the solution became homogeneous. The suspension was then sonicated on an ice bath for 40 min to reduce particle size. Animals were dosed while in the chair.
Results for each monkey were expressed as the rate of eye blinking (blinks per minute) averaged over each 5-min testing epoch. The effects of vehicle and D1 PAM on eye blinking were averaged for each group of monkeys and expressed as mean ± SE. The effects of DPTQ and vehicle were analyzed with two-way ANOVA (D1 PAM and time) followed by Bonferroni post hoc test (GraphPad Prism, San Diego CA).

In the next series the test system is adult human volunteers. Also on record: method as in Wilbraham et al. [2021]. The settings on record: clinical studies; ref Wilbraham et al. [2021]; cited from earlier work.

For `C[C@H]1c2cccc(C(C)(C)O)c2C[C@H](CO)N1C(=O)Cc1c(Cl)cccc1Cl` [DETQ], the “Spontaneous eye blink rate” value in the series on rhesus monkeys [1] is “enhanced spontaneous eye blink rate”. Also, on D2 receptor, the “Activity at the D2 receptor” value is on record as “no activity”. In addition, the “Brain levels of pCREB and pGluR1” value in series [2] is “enhances”.

For the molecule `CN1CCc2cc(Cl)c(O)cc2[C@H]2c3ccccc3CC[C@@H]21` [SCH39166, reference compound], in the series on rhesus monkeys [3] (0.03 mg/kg IM alone), the “Duration of eye blink reduction/sedation” value is “about 15 min”; the “Spontaneous eye blink rate, antagonist alone” value is “brief reduction in eye blink rate”; the “Visual observation of sedation” value was “slightly sedated”. Besides, the “Effect on DPTQ-induced increase in spontaneous eye blink rate” value in the series on rhesus monkeys [3] (SCH39166 pretreatment, high cumulative doses of DPTQ, n = 4/group) is “blocks”.

As to `C[C@H]1c2cccc(CCC(C)(C)O)c2C[C@H](CO)N1C(=O)Cc1c(Cl)cccc1Cl` [mevidalen, 2-(2,6-dichlorophenyl)-1-((1S,3R)-5-(3-hydroxy-3-methylbutyl)-3-(hydroxymethyl)-1-methyl-3,4-dihydroisoquinolin-2(1H)-yl)ethan-1-one], the “Oral movement with tongue protrusion” value with adult human volunteers is “not reported”. Besides, the “Activity at the D2 receptor” value on D2 receptor is reported as “no activity”.
